# Reference: patent publication US10828317B2, “Method of treating bacterial infections” (priority 2016, dated 2020)
# Where “and” joins values, the source holds several entries; their conditions need not be identical. Identical values can stand only once. Like-named read-outs stand apart in the source and are kept apart here.
# How the values were obtained:
# [1] = tested on: S. flexneri APV00907; assay: MIC and antibiogram; format: cell-based; details: for Antibiogram category (resistance pattern): letter before the MIC
# Text: (§1) Inhibition of Heliobacter is important in view of increasing resistance and its association to gastric cancer.
# [2] = tested on: S. sonnei APV00908; assay: MIC and antibiogram; format: cell-based; details: for Antibiogram category (resistance pattern): letter before the MIC
# [3] = tested on: S. flexneri APV00906; assay: microbe, parasite or virus in culture; format: cell-based; details: for Antibiogram category (resistance pattern): letter before the MIC
# Text: as §1
# [4] = tested on: K. pneumoniae EN0262; details: commercial antibiotics; data provided by IMBIM, BMC, Uppsala University; cited from earlier work
# [5] = tested on: E. coli; assay: Murine peritonitis model; format: in vivo, mice; parameters: score at sampling: scale not given here; details: for CFU/ml PF / log CFU/ml PF / score at sampling: per mouse
# [6] = tested on: S. aureus strain no 13; assay: MIC vs S. aureus LMG 15975, MRSA; details: for MIC BrdUrd: 2 μg/ml of trimethoprim; for MIC: Staphylococcus aureus
# [7] = tested on: P. aeruginosa EN0459; assay: MIC; format: cell-based, Pseudomonas aeruginosa; details: Pseudomonas aeruginosa, read-out: MIC
# [8] = tested on: E. coli EN002; assay: MIC, DtoIC; format: cell-based, Escherichia coli; details: Escherichia coli, read-out: MIC
# [9] = tested on: A. baumannii EN016; assay: MIC, WT; format: cell-based, Acinetobacter baumannii; details: Acinetobacter baumannii, read-out: MIC
# [10] = tested on: P. aeruginosa EN014; assay: MIC, WT; format: cell-based, Pseudomonas aeruginosa; details: Pseudomonas aeruginosa, read-out: MIC
# [11] = tested on: P. aeruginosa EN004; assay: MIC, WT (EN004 = EN0004); format: cell-based, Pseudomonas aeruginosa
# [12] = tested on: P. mirabilis EN0457; assay: MIC; format: cell-based, Proteus mirabilis; details: Proteus mirabilis, EN0457, Combination 2 AZT+trimethoprim+uridine+thymidine, Table 16; read-out: MIC
# [13] = tested on: S. aureus EN008; assay: MIC, Gram-positive control; format: cell-based, Staphylococcus aureus; details: Staphylococcus aureus, EN008, Combination 2 AZT+trimethoprim+uridine+thymidine, Table 16; read-out: MIC
# [14] = tested on: P. aeruginosa EN0460; assay: MIC; format: cell-based, Pseudomonas aeruginosa; details: Pseudomonas aeruginosa, read-out: MIC
# [15] = tested on: A. pittii or A. nosocomialis EN0180; assay: MIC; format: cell-based, Acinetobacter pittii or nosocomialis; details: read-out: MIC
# [16] = tested on: M. luteus EN0455; assay: MIC; format: cell-based, Micrococcus luteus; details: Micrococcus luteus, EN0455, Combination 2 AZT+trimethoprim+uridine+thymidine, Table 16; read-out: MIC
# [17] = tested on: S. marescens EN0454; assay: MIC; format: cell-based, Serratia marescens; details: Serratia, EN0454, Combination 2 AZT+trimethoprim+uridine+thymidine, Table 16; read-out: MIC
# [18] = tested on: Citrobacter sp. EN0465; assay: MIC; format: cell-based; details: Citrobacter, read-out: MIC
# [19] = tested on: E. coli strain no 2; assay: MIC vs E. coli LMG 15862, penicillin resistant; details: Escherichia coli, Uridine 0 μg/ml
# [20] = tested on: A. baumannii EN007; assay: MIC, WT (EN007 = EN0007); format: cell-based, Acinetobacter baumannii
# [21] = tested on: P. mirabilis ST19 EN0445; assay: MIC; format: cell-based, Proteus mirabilis; details: Proteus mirabilis, read-out: MIC
# [22] = tested on: P. aeruginosa EN0422; assay: MIC; format: cell-based, Pseudomonas aeruginosa; details: Pseudomonas aeruginosa, read-out: MIC
# [23] = combination AZT+trimethoprim+uridine, Table 17B
compound,measurement,setting,value
"NCC[C@H](O)C(=O)N[C@@H]1C[C@H](N)[C@@H](O[C@H]2O[C@H](CN)[C@@H](O)[C@H](O)[C@H]2O)[C@H](O)[C@H]1O[C@H]1O[C@H](CO)[C@@H](O)[C@H](N)[C@H]1O [AMK, amikacin]",Antibiogram category (resistance pattern),[1],R*
same,Antibiogram category (resistance pattern),[2],R*
same,Antibiogram category (resistance pattern),[3],R*
same,MIC,[4],8 µg/mL
gentamicin,Antibiogram MIC,[1],≤ 1 µg/mL
same,Antibiogram category (resistance pattern),[1],R*
same,Antibiogram MIC,[2],≤ 1 µg/mL
same,Antibiogram category (resistance pattern),[2],R*
same,Antibiogram MIC,[3],4 µg/mL
same,Antibiogram category (resistance pattern),[3],R*
same,MIC,[4],1 µg/mL
"O=C(O)c1cn(C2CC2)c2cc(N3CCNCC3)c(F)cc2c1=O [Ciprofloxacin, ciprofloxacin]",MIC,[4],>2 µg/mL
same,CFU/ml PF,[5]; Ciprofloxacin 14 mg/kg,1.75E+03 CFU/ml and 2.50E+02 CFU/ml and 1.00E+03 CFU/ml (2×)
same,log CFU/ml PF,[5]; Ciprofloxacin 14 mg/kg,3.24 log CFU/ml and 2.40 log CFU/ml and 3.00 log CFU/ml (2×)
same,score at sampling,[5]; Ciprofloxacin 14 mg/kg,0
"CO/N=C(\C(=O)N[C@@H]1C(=O)N2C(C(=O)[O-])=C(C[N+]3(C)CCCC3)CS[C@H]12)c1csc(N)n1 [FEP, cefepime]",MIC,[4],>16 µg/mL
O=c1[nH]c(=O)n([C@H]2C[C@H](O)[C@@H](CO)O2)cc1Br [BrdUrd],MIC BrdUrd,[6]; uridine 10 μg/ml,≤2 µg/mL
same,MIC BrdUrd,[6]; uridine 100 μg/ml,≤2 µg/mL
"Cc1cn([C@H]2C[C@H](N=[N+]=[N-])[C@@H](CO)O2)c(=O)[nH]c1=O [AZT, 3′-azido-3′-deoxythymidine]",MIC,"[7]; EN0459, Combination 1 AZT+trimethoprim+uridine, Table 16",> 4 µg/mL
same,MIC,"[7]; EN0459, Combination 2 AZT+trimethoprim+uridine+thymidine, Table 16",> 4 µg/mL
same,MIC,"[7]; EN0459, combination AZT+trimethoprim+uridine, Table 6",> 4 µg/mL
same,MIC,"[8]; EN002, Combination 1 AZT+trimethoprim+uridine, Table 16",0.016 µg/mL
same,MIC,"[8]; EN002, combination AZT+trimethoprim+uridine, Table 6",0.016 µg/mL
same,MIC,"[9]; EN016, Combination 1 AZT+trimethoprim+uridine, Table 16",> 4 µg/mL
same,MIC,"[9]; EN016, Combination 2 AZT+trimethoprim+uridine+thymidine, Table 16",> 4 µg/mL
same,MIC,"[9]; EN016, combination AZT+trimethoprim+uridine, Table 6",> 4 µg/mL
same,MIC,"[10]; EN014, Combination 1 AZT+trimethoprim+uridine, Table 16",> 4 µg/mL
same,MIC,"[10]; EN014, Combination 2 AZT+trimethoprim+uridine+thymidine, Table 16",> 4 µg/mL
same,MIC,"[10]; EN014, combination AZT+trimethoprim+uridine, Table 6",> 4 µg/mL
same,MIC,"[11]; Pseudomonas aeruginosa, EN004, Combination 1 AZT+trimethoprim+uridine, Table 16, read-out: MIC",> 4 µg/mL
same,MIC,"[11]; Pseudomonas aeruginosa, EN004, Combination 2 AZT+trimethoprim+uridine+thymidine, Table 16, read-out: MIC",> 4 µg/mL
same,MIC,"[11]; Pseudomonas aeruginosa, EN004, combination AZT+trimethoprim+uridine, Table 6, read-out: MIC",> 4 µg/mL
same,MIC,[11]; [23],>4 µg/mL
same,MIC,[12],> 4 µg/mL
same,MIC,[13],> 4 µg/mL
same,MIC,"[14]; EN0460, Combination 1 AZT+trimethoprim+uridine, Table 16",> 4 µg/mL
same,MIC,"[14]; EN0460, Combination 2 AZT+trimethoprim+uridine+thymidine, Table 16",> 4 µg/mL
same,MIC,"[14]; EN0460, combination AZT+trimethoprim+uridine, Table 6",> 4 µg/mL
same,MIC,"[15]; Combination 1 AZT+trimethoprim+uridine, Table 16",> 4 µg/mL
same,MIC,"[15]; Combination 2 AZT+trimethoprim+uridine+thymidine, Table 16",> 4 µg/mL
same,MIC,"[15]; combination AZT+trimethoprim+uridine, Table 6",> 4 µg/mL
same,MIC,"[6]; NO13, read-out: MIC AZT, Iclaprim 0, Uridine 0 μg/ml",> 32 µg/mL
same,MIC,"[6]; NO13, read-out: MIC AZT, Iclaprim 0, Uridine 100 μg/ml",> 32 µg/mL
same,MIC,"[6]; NO13, read-out: MIC AZT, Iclaprim 0, Uridine 300 μg/ml",> 32 µg/mL
same,MIC,"[6]; NO13, read-out: MIC AZT, Iclaprim 0, Uridine 500 μg/ml",> 32 µg/mL
same,MIC,"[6]; NO13, read-out: MIC AZT, Iclaprim 0.03, Uridine 300 μg/ml",≤ 0.008 µg/mL
same,MIC,"[6]; NO13, read-out: MIC AZT, Iclaprim 0.03, Uridine 500 μg/ml",≤ 0.008 µg/mL
same,MIC,[16],> 4 µg/mL
same,MIC,[17],> 4 µg/mL
same,MIC,"[18]; SP.EN0465, Combination 1 AZT+trimethoprim+uridine, Table 16",> 4 µg/mL
same,MIC,"[18]; SP.EN0465, Combination 2 AZT+trimethoprim+uridine+thymidine, Table 16",> 4 µg/mL
same,MIC,"[18]; SP.EN0465, combination AZT+trimethoprim+uridine, Table 6",> 4 µg/mL
same,MIC,"[19]; NO2, read-out: MIC AZT, Iclaprim 0.1",> 8 µg/mL
same,MIC,"[19]; NO2, read-out: MIC AZT, Iclaprim 0.2",> 8 µg/mL
same,MIC,"[20]; Acinetobacter baumannii, EN007, Combination 1 AZT+trimethoprim+uridine, Table 16, read-out: MIC",> 4 µg/mL
same,MIC,"[20]; Acinetobacter baumannii, EN007, Combination 2 AZT+trimethoprim+uridine+thymidine, Table 16, read-out: MIC",> 4 µg/mL
same,MIC,"[20]; Acinetobacter baumannii, EN007, combination AZT+trimethoprim+uridine, Table 6, read-out: MIC",> 4 µg/mL
same,MIC,[20]; [23],>4 µg/mL
same,MIC,"[21]; ST19EN0445, Combination 2 AZT+trimethoprim+uridine+thymidine, Table 16",> 4 µg/mL
same,MIC,"[21]; ST19EN0445, combination AZT+trimethoprim+uridine, Table 6",> 4 µg/mL
same,MIC,"[22]; EN0422, Combination 1 AZT+trimethoprim+uridine, Table 16",> 4 µg/mL
same,MIC,"[22]; EN0422, Combination 2 AZT+trimethoprim+uridine+thymidine, Table 16",> 4 µg/mL
same,MIC,"[22]; EN0422, combination AZT+trimethoprim+uridine, Table 6",> 4 µg/mL
same,CFU/ml PF,[5]; AZT 30 mg/kg,1.65E+04 CFU/ml and 4.25E+05 CFU/ml and 1.10E+07 CFU/ml and 6.75E+05 CFU/ml
same,log CFU/ml PF,[5]; AZT 30 mg/kg,4.22 log CFU/ml and 5.63 log CFU/ml and 7.04 log CFU/ml and 5.83 log CFU/ml
same,score at sampling,[5]; AZT 30 mg/kg,1
same,inhibition in mice infected with E. coli (in words),[5]; murine peritonitis model,slight inhibition
"CN(C)c1cc(NC(=O)CNC(C)(C)C)c(O)c2c1C[C@H]1C[C@H]3[C@H](N(C)C)C(O)=C(C(N)=O)C(=O)[C@@]3(O)C(O)=C1C2=O [TGC, tigecycline]",MIC,[4],2 µg/mL
"CC(C)(O/N=C(\C(=O)N[C@@H]1C(=O)N2C(C(=O)[O-])=C(C[n+]3ccccc3)CS[C@H]12)c1csc(N)n1)C(=O)O [CAZ, ceftazidime]",Antibiogram category (resistance pattern),[3],|
same,MIC,[4],>32 µg/mL
